Structures can show the parent of a compound that is named as a salt.

T1 sequence (Q13639 whole entry): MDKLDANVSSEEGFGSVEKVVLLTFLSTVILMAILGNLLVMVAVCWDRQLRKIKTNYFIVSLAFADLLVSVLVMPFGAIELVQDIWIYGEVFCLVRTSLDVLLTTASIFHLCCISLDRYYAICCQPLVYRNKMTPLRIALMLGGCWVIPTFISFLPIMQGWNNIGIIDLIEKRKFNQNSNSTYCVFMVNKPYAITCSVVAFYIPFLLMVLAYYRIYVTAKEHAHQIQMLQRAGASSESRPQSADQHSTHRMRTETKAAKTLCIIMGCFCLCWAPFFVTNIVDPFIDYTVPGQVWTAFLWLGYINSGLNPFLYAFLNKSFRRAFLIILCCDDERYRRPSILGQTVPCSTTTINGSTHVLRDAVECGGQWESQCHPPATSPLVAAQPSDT

The assay has as its target T1, Human 5-HT4 receptor (5-HT4b) (Homo sapiens, UniProt Q13639).
T1 construct: expressed in transfected cells; membrane preparation
The experiment in a line: Test Example 3: Human 5-HT4 receptor binding assay, membranes of CHO-K1 cells stably expressing 5-HT4b receptors (Table 99). The note with it: mean value of each group. On the procedure: To an assay tube were added 0.1 nM [^3H]-GR113808 {chemical name: [1-[2-(methylsulfonylamino) ethyl]-4-piperidinyl]methyl 1-methylindole-3-carboxylate}, receptor membrane preparations, and Hepes buffer (50 mM, pH 7.4, 4° C., 1 ml) containing test compounds or 30 μM serotonin; and the mixture was incubated at 37° C. for 30 minutes. On quenching the reaction, the mixture was rapidly filtered on whatman GF/B filter, which was presoaked in 0.1% polyethyleneimine for 1 hour, by using Brandel cell Harvester, and washed with ice-cooled 50 mM Tris-HCl (pH 7.7, 4 ml) three times. To the filter after filtration was added a liquid scintillator (Ecoscint), and then a radioactivity was determined by a liquid scintillation counter.
50% Inhibition concentrations (IC50) were determined from inhibition rates of test compounds to specific bindings which were obtained by subtracting nonspecific bindings from total binding amounts of [^3H]-GR113808.
Human 5-HT4 receptor membrane preparations were prepared from CHO-K^1 cells which stably express 5-HT4b receptors, and human 5-HT4 receptor binding assay was carried out in a similar manner as in the guinea pig 5-HT4 receptor binding assay. The following tables show results of serotonin 4 (5-HT4) receptor binding assay. In the following tables, the compounds used in the test are shown in numbers which correspond to the Example numbers above where the preparations of the compounds are described.
For `CC(C)c1nn(-c2noc([C@H]3C[C@@H](NCCC4CCCCO4)C3)n2)c2c(F)cccc12` (relative stereo) [Example 597, cis-3-{3-[7-fluoro-3-(propan-2-yl)-1H-indazol-1-yl]-1,2,4-oxadiazol-5-yl}-N-[2-(tetrahydro-2H-pyran-2-yl)ethyl]cyclobutanamine], the IC50 amounted to 26.9 nM.

In the case of `CC(C)c1nn(-c2noc([C@H]3C[C@H](NCCC4CCCCO4)C3)n2)c2c(F)cccc12` (relative stereo) [Example 598, trans-3-{3-[7-fluoro-3-(propan-2-yl)-1H-indazol-1-yl]-1,2,4-oxadiazol-5-yl}-N-[2-(tetrahydro-2H-pyran-2-yl)ethyl]cyclobutanamine], the IC50 was less than 20 nM.

For `CC(C)c1nn(-c2noc([C@H]3CC[C@H](NCC4CCCO4)CC3)n2)c2c(F)cccc12` (relative stereo) [Example 620, trans-4-{3-[7-fluoro-3-(propan-2-yl)-1H-indazol-1-yl]-1,2,4-oxadiazol-5-yl}-N-(tetrahydrofuran-2-ylmethyl)cyclohexanamine], the IC50 is less than 20 nM.

In turn, `CC(=O)N1CCCC(N[C@H]2CC[C@@H](c3nc(-n4nc(C(C)C)c5cccc(F)c54)no3)CC2)C1` (relative stereo) [Example 622, 1-{3-[(cis-4-{3-[7-fluoro-3-(propan-2-yl)-1H-indazol-1-yl]-1,2,4-oxadiazol-5-yl}cyclohexyl)amino]piperidin-1-yl}ethanone] came in with an IC50 of 123 nM.

Consider `CC(C)c1nn(-c2noc([C@H]3CC[C@@H](NC4CCCOC4)CC3)n2)c2c(F)cccc12` (relative stereo) [Example 623, N-(cis-4-{3-[7-fluoro-3-(propan-2-yl)-1H-indazol-1-yl]-1,2,4-oxadiazol-5-yl}cyclohexyl)tetrahydro-2H-pyran-3-amine], for which the IC50 was 105 nM.

Take `CC(C)c1nn(-c2noc(C3CCN(CCc4cccnc4)CC3)n2)c2c(F)cccc12` [Example 399, 7-fluoro-3-(propan-2-yl)-1-(5-{1-[2-(pyridin-3-yl)ethyl]piperidin-4-yl}-1,2,4-oxadiazol-3-yl)-1H-indazole]: the IC50 turned out to be 20.2 nM.

With `CC(C)c1nn(-c2noc(C3CCN(C(C)(C)C(=O)OC(C)(C)C)CC3)n2)c2c(F)cccc12` [Example 400, tert-butyl 2-(4-{3-[7-fluoro-3-(propan-2-yl)-1H-indazol-1-yl]-1,2,4-oxadiazol-5-yl}piperidin-1-yl)-2-methylpropanoate], the IC50 was 225 nM.

`CC(C)c1nn(-c2noc(C3CCN(C(C)(C)C(=O)O)CC3)n2)c2c(F)cccc12` [Example 401, 2-(4-{3-[7-fluoro-3-(propan-2-yl)-1H-indazol-1-yl]-1,2,4-oxadiazol-5-yl}piperidin-1-yl)-2-methylpropanoic acid hydrochloride] yielded a concentration for half-maximal inhibition (IC50) of 296 nM.

For `CC(=O)N1CCC(N2CC(Cc3nc(-n4nc(C(C)C)c5cccc(F)c54)no3)C2)CC1` [Example 416], the concentration for half-maximal inhibition (IC50) amounted to 27.4 nM.

`CC(=O)N1CCC(N2CCC(c3nc(-n4nc(C(C)C)c5cccc(F)c54)no3)CC2C)CC1` (centres unmarked) [Example 418, 1-(4-{3-[7-fluoro-3-(propan-2-yl)-1H-indazol-1-yl]-1,2,4-oxadiazol-5-yl}-2-methyl-1,4′-bipiperidin-1′-yl}ethanone]: the IC50 was 442 nM.

`Cc1cccc2c1c(C(C)C)nn2-c1noc(C2CCN(C3CCC3)CC2)n1` [Example 423, 1-[5-(1-cyclobutylpiperidin-4-yl)-1,2,4-oxadiazol-3-yl]-4-methyl-3-(propan-2-yl)-1H-indazole] registered an IC50 of 136 nM.

`Cc1cccc2c1c(C(C)C)nn2-c1noc(C2CCN(C3CCOCC3)CC2)n1` [Example 424, 4-methyl-3-(propan-2-yl)-1-{5-[1-(tetrahydro-2H-pyran-4-yl)piperidin-4-yl]-1,2,4-oxadiazol-3-yl}-1H-indazole]: the IC50 is 55 nM.

With `CC(C)c1nn(-c2noc(C3CCN(C4CCS(=O)(=O)CC4)CC3)n2)c2c(F)cccc12` [Example 444, 1-{5-[1-(1,1-dioxidotetrahydro-2H-thiopyran-4-yl)piperidin-4-yl]-1,2,4-oxadiazol-3-yl}-7-fluoro-3-(propan-2-yl)-1H-indazole], the IC50 was found to be 96.8 nM.

Regarding `CC(C)Cc1nn(-c2noc(C3CCN(C4CCN(C(=O)CO)CC4)CC3)n2)c2c(F)cccc12` [Example 526, 1-(4-{3-[7-fluoro-3-(2-methylpropyl)-1H-indazol-1-yl]-1,2,4-oxadiazol-5-yl}-1,4′-bipiperidin-1′-yl)-2-hydroxyethanone], the IC50 is 25.2 nM.

In turn, `CC(C)c1nn(-c2noc(C3CCN(C4C5CCCC4CN(C(=O)CO)C5)CC3)n2)c2c(F)cccc12` (stereo not drawn) [Example 535, 1-[(9-anti)-9-(4-{3-[7-fluoro-3-(propan-2-yl)-1H-indazol-1-yl]-1,2,4-oxadiazol-5-yl}piperidin-1-yl)-3-azabicyclo[3.3.1]non-3-yl]-2-hydroxyethanone] gave an IC50 of 29.7 nM.

Turning to `CCOC(=O)N1CCC(N2CCC(c3nc(-n4nc(C(C)C)c5cccc(F)c54)no3)CC2)C(OC)C1` (centres unmarked) [Example 556, ethyl 4-{3-[7-fluoro-3-(propan-2-yl)-1H-indazol-1-yl]-1,2,4-oxadiazol-5-yl}-3′-methoxy-1,4′-bipiperidine-1′-carboxylate], the 50% inhibitory concentration (IC50) turned out to be 52.1 nM.

Consider `CC(=O)N1CC[C@@H](NC2CC(c3nc(-n4nc(C(C)C)c5cccc(F)c54)no3)C2)C1` (stereo partly drawn) [Example 592, 1-{(3R)-3-[(3-{3-[7-fluoro-3-(propan-2-yl)-1H-indazol-1-yl]-1,2,4-oxadiazol-5-yl}cyclobutyl)amino]pyrrolidin-1-yl}ethanone], for which the IC50 was less than 20 nM.

In the case of `CC(C)c1nn(-c2noc(C3CC(NCCC4CCOC4)C3)n2)c2c(F)cccc12` (centres unmarked) [Example 599, 3-{3-[7-fluoro-3-(propan-2-yl)-1H-indazol-1-yl]-1,2,4-oxadiazol-5-yl}-N-[2-(tetrahydrofuran-3-yl)ethyl]cyclobutanamine], the IC50 is less than 20 nM.

`CC(C)c1nn(-c2noc(C3CC(NC4CCCOC4)C3)n2)c2c(F)cccc12` (centres unmarked) [Example 600, N-(3-{3-[7-fluoro-3-(propan-2-yl)-1H-indazol-1-yl]-l,2,4-oxadiazol-5-yl}cyclobutyl)tetrahydro-2H-pyran-3-amine] gave an IC50 of less than 20 nM.

`CC(C)c1nn(-c2noc(C3CC(NCC4CCCOC4)C3)n2)c2c(F)cccc12` (centres unmarked) [Example 601, 3-{3-[7-fluoro-3-(propan-2-yl)-1H-indazol-1-yl]-1,2,4-oxadiazol-5-yl}-N-{tetrahydro-2H-pyran-3-ylmethyl)cyclobutanamine] registered an IC50 of less than 20 nM.

In the case of `CC(C)c1nn(-c2noc(C3CC(NCC4CCCCO4)C3)n2)c2c(F)cccc12` (centres unmarked) [Example 602, 3-{3-[7-fluoro-3-(propan-2-yl)-1H-indazol-1-yl]-1,2,4-oxadiazol-5-yl}-N-(tetrahydro-2H-pyran-2-ylmethyl)cyclobutanamine], the IC50 was less than 20 nM.

The compound `CC(C)c1nn(-c2noc(C3CC(NCCC4CCOCC4)C3)n2)c2c(F)cccc12` (centres unmarked) [Example 603, 3-{3-[7-fluoro-3-(propan-2-yl)-1H-indazol-1-yl]-1,2,4-oxadiazol-5-yl}-N-[2-(tetrahydro-2H-pyran-4-yl)ethyl]cyclobutanamine] yielded an IC50 of 28.6 nM.

On to `CC(C)c1nn(-c2noc(C3CC(NCCC4CCCOC4)C3)n2)c2c(F)cccc12` (centres unmarked) [Example 604, 3-{3-[7-fluoro-3-(propan-2-yl)-1H-indazol-1-yl]-1,2,4-oxadiazol-5-yl}-N-[2-(tetrahydro-2H-pyran-3-yl)ethyl]cyclobutanamine], for which the IC50 is less than 20 nM.

In turn, `CC(C)c1nn(-c2noc(C3CC(NC4COC4)C3)n2)c2c(F)cccc12` (centres unmarked) [Example 606, N-(3-{3-[7-fluoro-3-(propan-2-yl)-1H-indazol-1-yl]-1,2,4-oxadiazol-5-yl}cyclobutyl)oxetan-3-amine] displayed a half-maximal inhibitory concentration (IC50) of 86.7 nM. This lies in the double-digit nanomolar range.

In turn, `CC(C)c1nn(-c2noc(C3CC(NC4CCOC4)C3)n2)c2c(F)cccc12` (centres unmarked) [Example 607, N-(3-{3-[7-fluoro-3-(propan-2-yl)-1H-indazol-1-yl]-1,2,4-oxadiazol-5-yl)cyclobutyl)tetrahydrofuran-3-amine] yielded an IC50 of less than 20 nM.

Consider `CC(C)c1nn(-c2noc(C3CC(NCC4CCOC4)C3)n2)c2c(F)cccc12` (centres unmarked) [Example 608, 3-{3-[7-fluoro-3-(propan-2-yl)-1H-indazol-1-yl]-1,2,4-oxadiazol-5-yl}-N-(tetrahydrofuran-3-ylmethyl)cyclobutanamine], for which the IC50 is less than 20 nM.

`COCCCNC1CC(c2nc(-n3nc(C(C)C)c4cccc(F)c43)no2)C1` (centres unmarked) [Example 609, 3-{3-[7-fluoro-3-(propan-2-yl)-1H-indazol-1-yl]-1,2,4-oxadiazol-5-yl}-N-(3-methoxypropyl)cyclobutanamine] returned an IC50 of less than 20 nM.

The compound `COCCN(CC1CCOCC1)C1CC(c2nc(-n3nc(C(C)C)c4cccc(F)c43)no2)C1` (centres unmarked) [Example 613, 3-{3-[7-fluoro-3-(propan-2-yl)-1H-indazol-1-yl]-1,2,4-oxadiazol-5-yl}-N-(2-methoxyethyl)-N-{tetrahydro-2H-pyran-4-ylmethyl)cyclobutanamine] came in with an IC50 of less than 20 nM.

For `COCCN(C1CCOCC1)[C@H]1C[C@H](c2nc(-n3nc(C(C)C)c4cccc(F)c43)no2)C1` [Example 615, N-(trans-3-{3-[7-fluoro-3-(propan-2-yl)-1H-indazol-1-yl]-1,2,4-oxadiazol-5-yl}cyclobutyl)-N-(2-methoxyethyl)tetrahydro-2H-pyran-4-amine], the concentration for half-maximal inhibition (IC50) is 27.4 nM.

Usually IC50 stands for the concentration that gives 50% inhibition. A high value points to a need for much substance.
